# Data: PubChem BioAssay AID1259407 (Chemical Carcinogenesis Research Information System (CCRIS), 2018)
# The source made the active and inactive calls. The rule behind the calls is not given here.
# System: CCRIS mutagenicity, Ames/micronucleus/aberration tests
# Test: CCRIS mutagenicity studies
compound,measurement,setting,value
Nc1c2ccccc2nc2ccccc12,mutagenic call,"Test System: AMES SALMONELLA TYPHIMURIUM, Strain/Indicator: TA97A, Metabolic Activation: NONE, Method: STANDARD PLATE",active; positive
same,mutagenic call,"Test System: AMES SALMONELLA TYPHIMURIUM, Strain/Indicator: TA98, Metabolic Activation: HAMSTER, LIVER, S-9, AROCLOR 1254 (10%), Method: PREINCUBATION",inactive; negative
same,mutagenic call,"Test System: AMES SALMONELLA TYPHIMURIUM, Strain/Indicator: TA98, Metabolic Activation: NONE, Method: FLUCTUATION (MICROTITER)",inactive; negative
same,mutagenic call,"Test System: AMES SALMONELLA TYPHIMURIUM, Strain/Indicator: TA98, Metabolic Activation: NONE, Method: PREINCUBATION",inactive; negative
same,mutagenic call,"Test System: AMES SALMONELLA TYPHIMURIUM, Strain/Indicator: TA98, Metabolic Activation: NONE, Method: SPIRAL ASSAY",inactive; negative
same,mutagenic call,"Test System: AMES SALMONELLA TYPHIMURIUM, Strain/Indicator: TA98, Metabolic Activation: NONE, Method: STANDARD PLATE",inactive; negative
same,mutagenic call,"Test System: AMES SALMONELLA TYPHIMURIUM, Strain/Indicator: TA98, Metabolic Activation: RAT, LIVER, S-9, AROCLOR 1254 (10%), Method: PREINCUBATION",inactive; negative
same,mutagenic call,"Test System: AMES SALMONELLA TYPHIMURIUM, Strain/Indicator: TA98, Metabolic Activation: RAT, LIVER, S-9, AROCLOR 1254, Method: SPIRAL ASSAY",inactive; negative
same,mutagenic call,"Test System: AMES SALMONELLA TYPHIMURIUM, Strain/Indicator: TA98, Metabolic Activation: RAT, LIVER, S-9, AROCLOR 1254, Method: STANDARD PLATE",inactive; negative
same,mutagenic call,"Test System: AMES SALMONELLA TYPHIMURIUM, Strain/Indicator: TA100, Metabolic Activation: HAMSTER, LIVER, S-9, AROCLOR 1254 (10%), Method: PREINCUBATION",inactive; negative
same,mutagenic call,"Test System: AMES SALMONELLA TYPHIMURIUM, Strain/Indicator: TA100, Metabolic Activation: NONE, Method: PREINCUBATION",inactive; negative
same,mutagenic call,"Test System: AMES SALMONELLA TYPHIMURIUM, Strain/Indicator: TA100, Metabolic Activation: NONE, Method: SPIRAL ASSAY",inactive; negative
same,mutagenic call,"Test System: AMES SALMONELLA TYPHIMURIUM, Strain/Indicator: TA100, Metabolic Activation: NONE, Method: STANDARD PLATE",inactive; negative
same,mutagenic call,"Test System: AMES SALMONELLA TYPHIMURIUM, Strain/Indicator: TA100, Metabolic Activation: RAT, LIVER, S-9, AROCLOR 1254 (10%), Method: PREINCUBATION",inactive; negative
same,mutagenic call,"Test System: AMES SALMONELLA TYPHIMURIUM, Strain/Indicator: TA100, Metabolic Activation: RAT, LIVER, S-9, AROCLOR 1254, Method: SPIRAL ASSAY",inactive; negative
same,mutagenic call,"Test System: AMES SALMONELLA TYPHIMURIUM, Strain/Indicator: TA100, Metabolic Activation: RAT, LIVER, S-9, AROCLOR 1254, Method: STANDARD PLATE",inactive; negative
same,mutagenic call,"Test System: AMES SALMONELLA TYPHIMURIUM, Strain/Indicator: TA1535, Metabolic Activation: HAMSTER, LIVER, S-9, AROCLOR 1254 (10%), Method: PREINCUBATION",inactive; negative
same,mutagenic call,"Test System: AMES SALMONELLA TYPHIMURIUM, Strain/Indicator: TA1535, Metabolic Activation: NONE, Method: PREINCUBATION",inactive; negative
same,mutagenic call,"Test System: AMES SALMONELLA TYPHIMURIUM, Strain/Indicator: TA1535, Metabolic Activation: NONE, Method: SPIRAL ASSAY",inactive; negative
same,mutagenic call,"Test System: AMES SALMONELLA TYPHIMURIUM, Strain/Indicator: TA1535, Metabolic Activation: NONE, Method: STANDARD PLATE",inactive; negative
same,mutagenic call,"Test System: AMES SALMONELLA TYPHIMURIUM, Strain/Indicator: TA1535, Metabolic Activation: RAT, LIVER, S-9, AROCLOR 1254 (10%), Method: PREINCUBATION",inactive; negative
same,mutagenic call,"Test System: AMES SALMONELLA TYPHIMURIUM, Strain/Indicator: TA1535, Metabolic Activation: RAT, LIVER, S-9, AROCLOR 1254, Method: SPIRAL ASSAY",inactive; negative
same,mutagenic call,"Test System: AMES SALMONELLA TYPHIMURIUM, Strain/Indicator: TA1535, Metabolic Activation: RAT, LIVER, S-9, AROCLOR 1254, Method: STANDARD PLATE",inactive; negative
same,mutagenic call,"Test System: AMES SALMONELLA TYPHIMURIUM, Strain/Indicator: TA1535, Metabolic Activation: RAT, LIVER, S-9, TETRACHLOROBIPHENYL, Method: PREINCUBATION",inactive; negative
same,mutagenic call,"Test System: AMES SALMONELLA TYPHIMURIUM, Strain/Indicator: TA1537, Metabolic Activation: HAMSTER, LIVER, S-9, AROCLOR 1254 (10%), Method: PREINCUBATION",active; positive
same,mutagenic call,"Test System: AMES SALMONELLA TYPHIMURIUM, Strain/Indicator: TA1537, Metabolic Activation: NONE",active; positive
same,mutagenic call,"Test System: AMES SALMONELLA TYPHIMURIUM, Strain/Indicator: TA1537, Metabolic Activation: NONE, Method: PREINCUBATION",active; positive
same,mutagenic call,"Test System: AMES SALMONELLA TYPHIMURIUM, Strain/Indicator: TA1537, Metabolic Activation: NONE, Method: SPIRAL ASSAY",active; positive
same,mutagenic call,"Test System: AMES SALMONELLA TYPHIMURIUM, Strain/Indicator: TA1537, Metabolic Activation: NONE, Method: STANDARD PLATE",active; positive
same,mutagenic call,"Test System: AMES SALMONELLA TYPHIMURIUM, Strain/Indicator: TA1537, Metabolic Activation: RAT LIVER S-9, AROCLOR 1254, Method: FLUCTUATION (MICROTITER)",active; positive
same,mutagenic call,"Test System: AMES SALMONELLA TYPHIMURIUM, Strain/Indicator: TA1537, Metabolic Activation: RAT, LIVER, S-9, AROCLOR 1254 (10%), Method: PREINCUBATION",active; positive
same,mutagenic call,"Test System: AMES SALMONELLA TYPHIMURIUM, Strain/Indicator: TA1537, Metabolic Activation: RAT, LIVER, S-9, AROCLOR 1254, Method: SPIRAL ASSAY",active; positive
same,mutagenic call,"Test System: AMES SALMONELLA TYPHIMURIUM, Strain/Indicator: TA1537, Metabolic Activation: RAT, LIVER, S-9, AROCLOR 1254, Method: STANDARD PLATE",active; positive
same,mutagenic call,"Test System: AMES SALMONELLA TYPHIMURIUM, Strain/Indicator: TA1537, Metabolic Activation: RAT, LIVER, S-9, TETRACHLOROBIPHENYL, Method: PREINCUBATION",active; positive
same,mutagenic call,"Test System: AMES SALMONELLA TYPHIMURIUM, Strain/Indicator: TA1538, Metabolic Activation: NONE, Method: PREINCUBATION",inactive; negative
same,mutagenic call,"Test System: AMES SALMONELLA TYPHIMURIUM, Strain/Indicator: TA1538, Metabolic Activation: RAT, LIVER, S-9, TETRACHLOROBIPHENYL, Method: PREINCUBATION",inactive; negative
same,mutagenic call,"Test System: AMES SALMONELLA TYPHIMURIUM, Strain/Indicator: TA1977, Metabolic Activation: NONE, Method: PREINCUBATION",active; positive
same,mutagenic call,"Test System: AMES SALMONELLA TYPHIMURIUM, Strain/Indicator: TA1977, Metabolic Activation: RAT, LIVER, S-9, TETRACHLOROBIPHENYL, Method: PREINCUBATION",active; positive
same,mutagenic call,"Test System: AMES SALMONELLA TYPHIMURIUM, Strain/Indicator: TA7001, Metabolic Activation: NONE, Method: FLUCTUATION (MICROTITER)",inactive; negative
same,mutagenic call,"Test System: AMES SALMONELLA TYPHIMURIUM, Strain/Indicator: TA7002, Metabolic Activation: NONE, Method: FLUCTUATION (MICROTITER)",inactive; negative
same,mutagenic call,"Test System: AMES SALMONELLA TYPHIMURIUM, Strain/Indicator: TA7003, Metabolic Activation: NONE, Method: FLUCTUATION (MICROTITER)",inactive; negative
same,mutagenic call,"Test System: AMES SALMONELLA TYPHIMURIUM, Strain/Indicator: TA7004, Metabolic Activation: NONE, Method: FLUCTUATION (MICROTITER)",inactive; negative
same,mutagenic call,"Test System: AMES SALMONELLA TYPHIMURIUM, Strain/Indicator: TA7005, Metabolic Activation: NONE, Method: FLUCTUATION (MICROTITER)",inactive; negative
same,mutagenic call,"Test System: AMES SALMONELLA TYPHIMURIUM, Strain/Indicator: TA7006, Metabolic Activation: NONE, Method: FLUCTUATION (MICROTITER)",inactive; negative
same,mutagenic call,"Test System: CHINESE HAMSTER OVARY, Strain/Indicator: CHO-K1-BH4 (HGPRT), Metabolic Activation: NONE, Method: SUSPENSION/PLATE",inactive; negative
same,mutagenic call,"Test System: CHINESE HAMSTER OVARY, Strain/Indicator: CHO-K1-BH4 (HGPRT), Metabolic Activation: RAT, LIVER, S-9, AROCLOR, Method: SUSPENSION/PLATE",inactive; negative
same,mutagenic call,"Test System: CHINESE HAMSTER V-79, Strain/Indicator: V-79/6-THIOGUANINE, Metabolic Activation: NONE, Method: FLASK ASSAY",inactive; negative
same,mutagenic call,"Test System: E. COLI, Strain/Indicator: WP2 UVRA, Metabolic Activation: HAMSTER, LIVER, S-9, AROCLOR 1254, Method: STANDARD PLATE",inactive; negative
same,mutagenic call,"Test System: E. COLI, Strain/Indicator: WP2 UVRA, Metabolic Activation: HAMSTER, LIVER, S-9, Method: STANDARD PLATE",inactive; negative
same,mutagenic call,"Test System: E. COLI, Strain/Indicator: WP2 UVRA, Metabolic Activation: MOUSE, LIVER, S-9, AROCLOR 1254, Method: STANDARD PLATE",inactive; negative
same,mutagenic call,"Test System: E. COLI, Strain/Indicator: WP2 UVRA, Metabolic Activation: MOUSE, LIVER, S-9, Method: STANDARD PLATE",inactive; negative
same,mutagenic call,"Test System: E. COLI, Strain/Indicator: WP2 UVRA, Metabolic Activation: NONE, Method: STANDARD PLATE",inactive; negative
same,mutagenic call,"Test System: E. COLI, Strain/Indicator: WP2 UVRA, Metabolic Activation: RAT, LIVER, S-9, AROCLOR 1254, Method: STANDARD PLATE",inactive; negative
same,mutagenic call,"Test System: E. COLI, Strain/Indicator: WP2 UVRA, Metabolic Activation: RAT, LIVER, S-9, Method: STANDARD PLATE",inactive; negative
same,mutagenic call,"Test System: E. coli, Strain/Indicator: KKi (wild-type), KK5 (recA56) and KK6 (uvrA6), Metabolic Activation: None, Method: Viable cells scored on LB-plates after 18 hr incubation",active; positive in all 3 strains (most common mutations minus frameshifts in repetitive
same,mutagenic call,"Test System: UDS RAT HEPATOCYTES, Strain/Indicator: THY INCORP, Metabolic Activation: NONE, Method: AUTORADIOGRAPHY (SERUM-FREE MEDIA)",inactive; negative
